Measured values reported in patent US8609715B2, “Heteroarylcarboxylic acid ester derivative” (Ajinomoto Co., Inc., priority 2009, dated 2013).
Counter-ions that a name gives are not always drawn.

Molecular target: recombinant human enteropeptidase (Homo sapiens (Human), UniProt P98073)
Assay: Measurement of enteropeptidase inhibitory activity
Assay type: biochemical
Settings: Dixon plot
Procedure: Measurement of Enteropeptidase Inhibitory Activity
Using a 96 well plate (#3915, Costar), a test compound (25 μL), 400 mM Tris-HCl buffer (pH 8.0, 25 μL) and 0.5 mg/mL fluorescence enzyme substrate (Gly-Asp-Asp-Asp-Asp-Lys-β-Naphtylamide, 25 μL) were mixed, and recombinant human enteropeptidase (R&D Systems, Inc., 25 μL) was added. Using a fluorescence plate reader fmax (Molecular Devices, Inc.), the reaction rate was measured from the time-course changes at excitation wavelength 320 nm and fluorescence wavelength 405 nm. The Ki value was calculated from the concentration of the test compound, reciprocal of reaction rate, and Km value of the enzyme substrate, and by using Dixon plot.

Chain of recombinant human enteropeptidase (P98073 whole entry): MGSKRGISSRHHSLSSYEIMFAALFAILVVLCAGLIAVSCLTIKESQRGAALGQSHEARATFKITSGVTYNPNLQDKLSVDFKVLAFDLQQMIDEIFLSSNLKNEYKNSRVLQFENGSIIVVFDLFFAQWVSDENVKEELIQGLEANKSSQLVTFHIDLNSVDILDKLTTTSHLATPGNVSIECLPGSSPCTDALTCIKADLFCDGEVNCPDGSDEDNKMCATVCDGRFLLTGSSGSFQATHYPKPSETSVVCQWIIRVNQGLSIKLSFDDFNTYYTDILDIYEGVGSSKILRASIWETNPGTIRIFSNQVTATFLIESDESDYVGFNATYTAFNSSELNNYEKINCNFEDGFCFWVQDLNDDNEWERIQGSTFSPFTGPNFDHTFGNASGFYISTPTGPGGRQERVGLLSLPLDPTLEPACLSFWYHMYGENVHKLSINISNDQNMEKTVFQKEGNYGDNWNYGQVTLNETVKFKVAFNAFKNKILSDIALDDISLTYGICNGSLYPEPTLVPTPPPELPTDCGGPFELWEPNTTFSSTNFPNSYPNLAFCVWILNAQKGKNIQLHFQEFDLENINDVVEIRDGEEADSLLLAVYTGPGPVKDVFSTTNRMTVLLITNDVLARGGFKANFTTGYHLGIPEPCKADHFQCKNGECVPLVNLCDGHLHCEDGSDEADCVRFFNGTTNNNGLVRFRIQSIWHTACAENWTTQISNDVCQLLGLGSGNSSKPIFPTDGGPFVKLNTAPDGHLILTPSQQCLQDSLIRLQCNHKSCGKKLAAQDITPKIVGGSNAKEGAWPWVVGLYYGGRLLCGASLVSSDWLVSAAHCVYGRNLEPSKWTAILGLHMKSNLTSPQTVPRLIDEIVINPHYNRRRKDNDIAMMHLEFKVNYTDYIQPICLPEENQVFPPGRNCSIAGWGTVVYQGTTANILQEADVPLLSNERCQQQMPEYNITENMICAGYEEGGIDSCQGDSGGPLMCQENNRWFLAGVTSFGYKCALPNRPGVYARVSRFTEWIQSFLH

Structure (SMILES) | Ki
C/C(=C\c1ccc(C(=O)Oc2ccc(C(=N)N)cc2)o1)C(=O)N[C@@H](CO)C(=O)O [Compound A-1] | 2.27 nM
C/C(=C\c1ccc(C(=O)Oc2ccc(C(=N)N)cc2)o1)C(=O)NCC(=O)O [Compound A-2] | 1.97 nM
CC(Cc1ccc(C(=O)Oc2ccc(C(=N)N)cc2)o1)C(=O)NCC(=O)O (stereo not drawn) [Compound A-4] | 2.68 nM
C/C(=C\c1ccc(C(=O)Oc2ccc(C(=N)N)cc2)o1)C(=O)N(CCCO)CC(=O)O [Compound A-7] | 1.49 nM
CC(Cc1ccc(C(=O)Oc2ccc(C(=N)N)cc2)o1)C(=O)N(CCCO)CC(=O)O (stereo not drawn) [Compound A-9] | 3.17 nM
C/C(=C\c1ccc(C(=O)Oc2ccc(C(=N)N)cc2)o1)C(=O)N(CCO)Cc1ccccc1 [Compound A-10] | 6.73 nM
C/C(=C\c1ccc(C(=O)Oc2ccc(C(=N)N)cc2)o1)C(=O)N(CCCO)CCC(=O)O [Compound A-12, N-{(2E)-3-[5-(4-amidino-2-phenoxycarbonyl)furan-2-yl]-2-methylpropenoyl}-N-(3-hydroxypropyl)-β-alanine trifluoroacetic acid salt] | 3.31 nM
CC(Cc1ccc(C(=O)Oc2ccc(C(=N)N)cc2)o1)C(=O)N[C@@H](CCC(=O)O)C(=O)O (stereo partly drawn) [Compound A-15] | 1.63 nM
CC(Cc1ccc(C(=O)Oc2ccc(C(=N)N)cc2)o1)C(=O)N1CCC[C@@H]1C(=O)O (stereo partly drawn) [Compound A-19] | 1.91 nM
CC(Cc1ccc(C(=O)Oc2ccc(C(=N)N)cc2)o1)C(=O)N1C[C@@H](O)C[C@H]1C(=O)O (stereo partly drawn) [Compound A-21] | 4.81 nM
CC(Cc1ccc(C(=O)Oc2ccc(C(=N)N)cc2)o1)C(=O)N(CC(=O)O)CC(=O)O (stereo not drawn) [Compound A-26] | 0.68 nM
CC[C@H](Cc1ccc(C(=O)Oc2ccc(C(=N)N)cc2)o1)C(=O)N[C@H](CCC(=O)O)C(=O)O [Compound A-30] | 1.03 nM
CC(Cc1ccc(C(=O)Oc2ccc(C(=N)N)cc2F)o1)C(=O)O (stereo not drawn) [Compound A-33] | 0.65 nM
CC(Cc1ccc(C(=O)Oc2ccc(C(=N)N)cc2F)o1)C(=O)N[C@H](CC(=O)O)C(=O)O (stereo partly drawn) [Compound A-35, N-{3-[5-(4-amidino-2-fluorophenoxycarbonyl)furan-2-yl]-2-methylpropanoyl}-N-(D)-aspartic acid trifluoroacetic acid salt] | 0.25 nM
CC(Cc1ccc(C(=O)Oc2ccc(C(=N)N)cc2)o1)S(=O)(=O)O (stereo not drawn) [Compound A-36, 1-[5-(4-amidinophenoxycarbonyl)furan-2-yl]propane-2-sulfonic acid trifluoroacetic acid salt] | 0.58 nM
N=C(N)c1ccc(OC(=O)c2ccc(CCC(=O)N[C@@H](CC(=O)O)C(=O)O)o2)cc1 [Compound A-38] | 0.57 nM
C[C@H](Cc1ccc(C(=O)Oc2ccc(C(=N)N)cc2)o1)C(=O)N[C@H](CC(=O)O)C(=O)O [Compound A-46, N-{3-[5-(4-amidinophenoxycarbonyl)-furan-2-yl]-2R-methylpropionyl}-D-aspartic acid trifluoroacetic acid salt] | 0.35 nM
CC(Cc1ccc(C(=O)Oc2ccc(C(=N)N)cc2)o1)C(=O)NCCc1ccccc1 (stereo not drawn) [Compound A-47, 5-{2-methyl-2-[(2-phenylethyl)-carbamoyl]ethyl}furan-2-carboxylic acid 4-amidinophenyl ester trifluoroacetic acid salt] | 1.9 nM
CC(C)CCNC(=O)C(C)Cc1ccc(C(=O)Oc2ccc(C(=N)N)cc2)o1 (stereo not drawn) [Compound A-48] | 1.3 nM
CC(Cc1ccc(C(=O)Oc2ccc(C(=N)N)cc2)o1)C(=O)NCCO (stereo not drawn) [Compound A-50] | 4.4 nM
CC(Cc1ccc(C(=O)Oc2ccc(C(=N)N)cc2)o1)C(=O)N1CCCC1 (stereo not drawn) [Compound A-51] | 4.9 nM
CC(CCC(=O)N[C@@H](CC(=O)O)C(=O)O)Cc1ccc(C(=O)Oc2ccc(C(=N)N)cc2)o1 (stereo partly drawn) [Compound A-59, N-{5-[5-(4-amidinophenoxycarbonyl)furan-2-yl]-4-methylpentanoyl}-L-aspartic acid trifluoroacetic acid salt] | 0.35 nM
N=C(N)c1ccc(OC(=O)c2ccc(CC(CCC(=O)O)C(=O)O)o2)cc1 (stereo not drawn) [Compound A-60, 5-[5-(4-amidinophenoxycarbonyl)furan-2-yl]-4-carboxypentanoic acid trifluoroacetic acid salt] | 0.31 nM

More lines, in order of falling Ki, values ahead:

Ki | Structure (SMILES)
7.6 nM | CC(Cc1ccc(C(=O)Oc2ccc(C(=N)N)cc2)o1)C(=O)NCCN(C)C (stereo not drawn) [Compound A-49]
3.52 nM | C/C(=C\c1ccc(C(=O)Oc2ccc(C(=N)N)cc2)o1)C(=O)N[C@H](C(=O)O)C(C)O (stereo partly drawn) [Compound A-14]
2.54 nM | CC(Cc1ccc(C(=O)Oc2ccc(C(=N)N)cc2)o1)C(=O)N1C[C@H](O)C[C@@H]1C(=O)O (stereo partly drawn) [Compound A-20]
2.5 nM | CC(Cc1ccc(C(=O)Oc2ccc(C(=N)N)cc2)o1)C(=O)N1CCCC(C(=O)O)C1 (stereo not drawn) [Compound A-52, N-{3-[5-(4-amidinophenoxycarbonyl)-furan-2-yl]-2-methylpropanoyl}nipecotic acid trifluoroacetic acid salt]
2 nM | C[C@@H](Cc1ccc(C(=O)Oc2ccc(C(=N)N)cc2)o1)C(=O)N[C@@H](CC(N)=O)C(=O)O [Compound A-23]
1.88 nM | CC(Cc1ccc(C(=O)Oc2ccc(C(=N)N)cc2)o1)C(=O)N[C@H](C(=O)O)C(C)O (stereo partly drawn) [Compound A-16]
1.37 nM | CC(Cc1ccc(C(=O)Oc2ccc(C(=N)N)cc2)o1)C(=O)N[C@@H](CO)C(=O)O (stereo partly drawn) [Compound A-5]
1.3 nM | C=CCN(CC(=O)O)C(=O)CCc1ccc(C(=O)Oc2ccc(C(=N)N)cc2)o1 [Compound A-55, N-{3-[5-(4-amidinophenoxycarbonyl)-furan-2-yl]-propionyl}-N-allylglycine trifluoroacetic acid salt]
1.15 nM | C/C(=C\c1ccc(C(=O)Oc2ccc(C(=N)N)cc2)o1)C(=O)O [Compound A-3, (2E)-3-[5-(4-amidinophenoxycarbonyl)-furan-2-yl]-2-methylpropenoic acid trifluoroacetic acid salt]
1.1 nM | CC(Cc1ccc(C(=O)Oc2ccc(C(=N)N)cc2)o1)C(=O)NCP(=O)(O)O (stereo not drawn) [Compound A-56]
0.98 nM | CCCC(Cc1ccc(C(=O)Oc2ccc(C(=N)N)cc2)o1)C(=O)O (stereo not drawn) [Compound A-34]
0.95 nM | C[C@H](Cc1ccc(C(=O)Oc2ccc(C(=N)N)cc2)o1)C(=O)N[C@@H](CC(N)=O)C(=O)O [Compound A-22]
0.82 nM | CCC(Cc1ccc(C(=O)Oc2ccc(C(=N)N)cc2)o1)C(=O)O (stereo not drawn) [Compound A-29, 3-[5-(4-amidinophenoxycarbonyl)furan-2-yl]-2-ethylpropionic acid trifluoroacetic acid salt]
0.71 nM | CC(Cc1ccc(C(=O)Oc2ccc(C(=N)N)cc2)o1)C(=O)O (stereo in doubt) [Compound A-42, 3-[5-(4-amidinophenoxycarbonyl)furan-2-yl]-2R-methylpropionic acid trifluoroacetic acid salt]
0.7 nM | CC(CCC(=O)O)Cc1ccc(C(=O)Oc2ccc(C(=N)N)cc2)o1 (stereo not drawn) [Compound A-58, 5-[5-(4-amidinophenoxycarbonyl)furan-2-yl]-4-methylpentanoic acid trifluoroacetic acid salt]
0.67 nM | N=C(N)c1ccc(OC(=O)c2ccc(CC(=O)N[C@@H](CC(=O)O)C(=O)O)o2)cc1 [Compound A-39, N-[5-(4-amidinophenoxycarbonyl)furan-2-ylacetyl]-(L)-aspartic acid trifluoroacetic acid salt]
0.64 nM | N=C(N)c1ccc(OC(=O)c2ccc(CCC(=O)O)o2)cc1 [Compound A-37]
0.62 nM | CC(Cc1ccc(C(=O)Oc2ccc(C(=N)N)cc2)o1)C(=O)O (stereo not drawn) [Compound A-6, 3-[5-(4-amidinophenoxycarbonyl)furan-2-yl]-2-methylpropionic acid trifluoroacetic acid salt]
0.62 nM | N=C(N)c1ccc(OC(=O)c2ccc(CC(=O)O)o2)cc1 [Compound A-32, 5-(4-amidinophenoxycarbonyl)furan-2-ylacetic acid trifluoroacetic acid salt]
0.61 nM | CC(Cc1ccc(C(=O)Oc2ccc(C(=N)N)cc2)o1)C(=O)N[C@@H](CC(=O)O)C(=O)O (stereo partly drawn) [Compound A-18]
0.57 nM | CC(Cc1ccc(C(=O)Oc2ccc(C(=N)N)cc2)o1)C(=O)N[C@H](CCC(=O)O)C(=O)O (stereo partly drawn) [Compound A-27]
0.5 nM | CCC(Cc1ccc(C(=O)Oc2ccc(C(=N)N)cc2)o1)C(=O)N[C@H](CC(=O)O)C(=O)O (stereo partly drawn) [Compound A-31]
0.5 nM | C[C@H](Cc1ccc(C(=O)Oc2ccc(C(=N)N)cc2)o1)C(=O)O [Compound A-41, 3-[5-(4-amidinophenoxycarbonyl)furan-2-yl]-2S-methylpropionic acid trifluoroacetic acid salt]
0.46 nM | C[C@@H](Cc1ccc(C(=O)Oc2ccc(C(=N)N)cc2)o1)C(=O)N[C@H](CC(=O)O)C(=O)O [Compound A-45, N-{3-[5-(4-amidinophenoxycarbonyl)-furan-2-yl]-2S-methylpropionyl}-D-aspartic acid trifluoroacetic acid salt]
0.42 nM | CC(Cc1ccc(C(=O)Oc2ccc(C(=N)N)cc2)o1)C(=O)N[C@H](CC(=O)O)C(=O)O (stereo partly drawn) [Compound A-28]
0.4 nM | C[C@@H](Cc1ccc(C(=O)Oc2ccc(C(=N)N)cc2)o1)C(=O)N[C@@H](CC(=O)O)C(=O)O [Compound A-43, N-{3-[5-(4-amidinophenoxycarbonyl)-furan-2-yl]-2S-methylpropionyl}-L-aspartic acid trifluoroacetic acid salt]
0.39 nM | CC(Cc1ccc(C(=O)Oc2ccc(C(=N)N)cc2)o1)C(=O)N[C@@H](CS(=O)(=O)O)C(=O)O (stereo partly drawn) [Compound A-57]
0.33 nM | C[C@H](Cc1ccc(C(=O)Oc2ccc(C(=N)N)cc2)o1)C(=O)N[C@@H](CC(=O)O)C(=O)O [Compound A-44, N-[3-[5-(4-amidinophenoxycarbonyl)-furan-2-yl]-2R-methylpropionyl]-L-aspartic acid trifluoroacetic acid salt]
